How the values were obtained:
PTP1B [1] = target: T1, PTP1B (Homo sapiens, UniProt P18031); assay: PTP1B inhibition kinetic assay (Lineweaver-Burk and Dixon plots); assay type: biochemical; conditions: for Ki: Dixon plot method, means ± SD of three replications; for type of inhibition against PTP1B: Lineweaver-Burk double reciprocal plot
T1 sequence (P18031 1-435): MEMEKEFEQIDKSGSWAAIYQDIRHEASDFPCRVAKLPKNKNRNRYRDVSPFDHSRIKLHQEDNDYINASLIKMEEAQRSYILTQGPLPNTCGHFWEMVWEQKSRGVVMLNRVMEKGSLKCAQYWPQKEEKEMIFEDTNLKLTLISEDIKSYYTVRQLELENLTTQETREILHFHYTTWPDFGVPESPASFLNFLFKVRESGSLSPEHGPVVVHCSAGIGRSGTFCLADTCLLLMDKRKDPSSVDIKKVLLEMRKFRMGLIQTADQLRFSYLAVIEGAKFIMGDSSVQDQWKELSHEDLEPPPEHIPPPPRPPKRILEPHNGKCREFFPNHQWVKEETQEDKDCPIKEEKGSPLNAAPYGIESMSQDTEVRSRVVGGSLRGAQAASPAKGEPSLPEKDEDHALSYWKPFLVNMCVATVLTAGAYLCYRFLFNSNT
Procedure: The kinetic behaviour of the active compounds against PTP1B and the corresponding inhibition constants (Ki values) were investigated using Lineweaver-Burk double reciprocal plots and Dixon plots. Different concentrations of p-NPP substrates (1, 2, 5 and 10 mM) were subjected to enzymatic reactions with various concentrations of active compounds (0, 0.5, 1.0 and 5.0 μM for 18) and 100 nM PTP1B in 96-well plates. The absorbance of the reaction mixture was recorded every 3 min by a plate reader. The enzymatic velocity of the enzyme reaction was calculated based on the time-Δabs plot. All assays were performed in triplicate.

PTP1B [2] = target: T1, PTP1B; assay: PTP1B inhibition assay (pNPP colorimetric method); assay type: biochemical; parameters: purchased Abcam (Shanghai) Trading Co., Ltd. ab51277; conditions: for PTP1B inhibitory activity (in words): pNPP method, compared with positive control NaVO4; for IC50: pNPP substrate, 37 °C 30 min, means ± SD of three replications
Procedure: In the separation process, the column chromatography as performed by silica-gel (100–200 and 300–400 mesh, Qingdao Marine Chemical Co., Qingdao, China), and Sephadex LH-20 (GE Healthcare, Marlborough, MA). The TLC detection was carried by heating a silica gel plate (Qingdao Marine Chemical Co., Qingdao, China) spayed with 10% H2SO4 in ethanol. The 1D and 2D NMR spectra were recorded on a Varian INOVA AS 400 instrument (Agilent, Santa Clara, USA) with TMS as the internal standard. The chemical shift was shown in ppm while coupling constant J in Hz. Deuterated solvent ([…]) was purchased from Sigma Aldrich for NMR analysis. HR-ESI-MS data were collected by a UPLC–Q/TOF-MS system including a 1290 Infinity II UPLC system (Agilent, USA) and an Agilent 6545 Q/TOF-MS system (Agilent, MA, USA). Optical rotations were measured by a JASCO P-1020 polarimeter (Kyoto, Japan). The single crystal X-ray diffraction data were obtained by a SuperNova, Dual, Cu at zero, AtlasS2 diffractometer (Rigaku, Japan). Besides, other analytical grade chemical solvent was obtained from Jinhuada Chemical Co., ltd. Guangzhou, P.R. China. Recombinant human PTP1B protein (ab51277) was purchased from Abcam (Shanghai) Trading Co., Ltd. All chemical reagents used in the enzymatic assays were produced by Laibo Chemicals Industries, Ltd.
The enzymatic assays of protein tyrosine phosphatase 1B (PTP1B) were referred. The PTP1B inhibitory activities of test compounds were examined in 96-well plates using the colorimetric method. […] The reaction system was 100 μL: MOPS (25 mM, pH = 7.0), DTT (2 mM), EDTA (1 mM, pH = 7.0), NaCl (0.1 M), PTP 1B (25 nM), and disodium-4-nitrophenyl phosphate (pNPP, 2 mM), and the enzyme-catalysed reaction was terminated by the addition of 1.0 M NaOH after incubation at 37 °C for 30 min. The inhibition efficiency of the compounds on the enzymatic activity of PTP1B was assayed by detecting the amount of the hydrolysed product, p-nitrophenol (p-NP) at 405 nm using a microplate reader. The PTP1B inhibition activity was expressed as inhibition (%) and was calculated as Equation (1): (1) Inhibition (%)=(1−ΔAsample/ΔAcontrol)×100%

Row | IC50 (PTP1B [2]) [µM] | SMILES | Ki (PTP1B [1]) [µM] | type of inhibition against PTP1B (PTP1B [1]) | PTP1B inhibitory activity (in words) (PTP1B [2])
1 | 24.6 ± 2.28 | CC(C)=C1CC=C([C@H]2CC[C@]3(C)[C@@H]2CC[C@@H]2[C@@]4(C)CC[C@H](O)C(C)(C)[C@@H]4CC[C@]23C)C1=O [Compound 8, Gypensapogenin C] |  |  | 
2 | 19.6 ± 1.48 | CC(C)=C1CC=C([C@H]2CC[C@]3(C)[C@@H]2CC[C@@H]2C4=C(CC[C@]23C)C(C)(C)[C@@H]2CC[C@H]4O2)C1=O [Compound 6, Gypensapogenin A] |  |  | 
3 | 29.4 ± 2.48 | CC(C)=C1CC([C@H]2CC[C@]3(C)[C@@H]2CC[C@@H]2C4=C(CC[C@]23C)C(C)(C)[C@@H]2CC[C@H]4O2)=CC1=O [Compound 7, Gypensapogenin B] |  |  | 
4 | 33.9 ± 0.83 | CC(C)=CC(=O)CC(C(=O)O)[C@H]1CC[C@]2(C)[C@@H]1CCC1[C@@]3(C)CC[C@H](O)C(C)(C)C3CC[C@]12C (stereo partly shown) [Compound 5, Gypensapogenin V] |  |  | 

More lines, now with the values behind:

Row | SMILES | IC50 (PTP1B [2]) [µM] | Ki (PTP1B [1]) [µM] | type of inhibition against PTP1B (PTP1B [1]) | PTP1B inhibitory activity (in words) (PTP1B [2])
5 | CC(C)=CCC[C@@](O)(C(=O)O)[C@H]1CC[C@]2(C)[C@@H]1CCC1[C@@]3(C)CC[C@H](O)C(C)(C)C3CC[C@]12C (stereo partly shown) [Compound 3, Gypensapogenin III] | 2.34 ± 0.24 | 1.16 ± 0.47 | competitive inhibitors | more inhibitory activity against PTP1B than the positive control
6 | CC(C)=C1CC([C@H]2CC[C@]3(C)[C@@H]2CCC2[C@@]4(C)CC[C@H](O)C(C)(C)C4CC[C@]23C)=CC1=O (stereo partly shown) [Compound 2, Gypensapogenin II] | 10.5 ± 1.07 |  |  | more inhibitory activity against PTP1B than the positive control
7 | CC(C)=C[C@H]1C=C([C@H]2CC[C@]3(C)[C@@H]2CC[C@@H]2[C@@]4(C)CC[C@H](O)C(C)(C)[C@@H]4CC[C@]23C)C(=O)O1 [Compound 9, Gypensapogenin D] | 7.77 ± 0.85 | 5.58 ± 0.7 | competitive inhibitors | more inhibitory activity against PTP1B than the positive control
8 | CC1(C)CCC=C(C(=O)C2CCC3(C)C2CCC2C4=C(CCC23C)C(C)(C)C2CCC4O2)O1 (stereo not shown) [Compound 1, Gypensapogenin I] | 20.3 ± 2.49 |  |  | 
9 | CC(C)(O)CC(=O)CC(C(=O)O)[C@H]1CC[C@]2(C)[C@@H]1CCC1[C@@]3(C)CC[C@H](O)C(C)(C)C3CC[C@]12C (stereo partly shown) [Compound 4, Gypensapogenin IV] | 4.26 ± 0.42 | 2.44 ± 0.09 | competitive inhibitors | more inhibitory activity against PTP1B than the positive control

— paper PMC10653776, “New dammarane-type triterpenoids from hydrolyzate of total Gynostemma pentaphyllum saponins with protein tyrosine phosphatase 1B inhibitory activity” (Journal of Enzyme Inhibition and Medicinal Chemistry, 2023)
